The target in one experiment is MELK (Homo sapiens, UniProt Q14680). Put plainly: Kinase assay (IMAP fluorescence polarization, FITC-labeled histone H3 peptide). It counts as biochemical. The settings on record: 50 micro-M ATP. In a few lines: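 Kinase (0.8 ng/μL) reacted with 100 nM FITC-histone H3 peptide and 50 μM ATP in 20 mM HEPES, 0.3 mM MgCl2, 2 mM DTT, 0.01% Tween-20, pH 7.4, for 1 hour at room temperature. Phosphorylation read by IMAP fluorescence polarization after adding binding solution; IC50 from four-parameter fit.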

The next experiment relates to 22Rv1 cells. Put plainly: Cell-based assay, anti-proliferative activity (Cell Counting Kit-8, 72 hours). Also noted: species or system human. The settings on record: Homo sapiens, 22Rv1, 72 h, read-out: IC50 (μM) (22Rvl). In a few lines:
(§1)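 Cells seeded at 2,000–3,000 cells/well and exposed to candidate MELK inhibitors for 72 hours; growth measured with Cell Counting Kit-8. IC50 values calculated from the growth read-out.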

The subject of the next experiment is A549 cells. Described as above. Also noted: species or system human. Particulars: Homo sapiens, A549, 72 h, read-out: IC50 (μM) (A549). A digest of the protocol: as §1
Another experiment concerns DU4475 cells. Described as above. The settings on record: Homo sapiens, DU-4475, 72 h, read-out: IC50 (μM) (DU4475). Also noted: species or system human. A digest of the protocol: as §1
The subject of the next experiment is T47D cells. The description is as above. Also noted: species or system human. Particulars: Homo sapiens, T47D, 72 h, read-out: IC50 (μM) (T47D). In a few lines:
as §1

The test system of the next experiment is HT1197 cells. The experiment can be described thus: Cell-based assay, anti-proliferative activity, MELK-negative control (Cell Counting Kit-8, 72 hours). Also noted: species or system human. Particulars: Homo sapiens, HT1197, 72 h, read-out: IC50 (μM) (HTll97). The procedure:
100 micro-L of cell suspension was seeded onto 96-well microtiter plate (ViewPlate-96FTC, PerkinElmer). The initial cell concentration of 22Rv1, T47D, A549, DU4475, and HT1197 were 3,000 cells/well, 2,000 cells/well and 2,500 cells/well, respectively. Cellular growth was determined using Cell Counting Kit-8 (DOJINDO) at 72 hours after the exposure of the candidate inhibitors. […] Accurate IC50 values were calculated as described previously.

Each structure is given as a SMILES string. Where a name gives a salt, the structure may show the parent alone.

MELK, sequence (Q14680 whole entry, looked up): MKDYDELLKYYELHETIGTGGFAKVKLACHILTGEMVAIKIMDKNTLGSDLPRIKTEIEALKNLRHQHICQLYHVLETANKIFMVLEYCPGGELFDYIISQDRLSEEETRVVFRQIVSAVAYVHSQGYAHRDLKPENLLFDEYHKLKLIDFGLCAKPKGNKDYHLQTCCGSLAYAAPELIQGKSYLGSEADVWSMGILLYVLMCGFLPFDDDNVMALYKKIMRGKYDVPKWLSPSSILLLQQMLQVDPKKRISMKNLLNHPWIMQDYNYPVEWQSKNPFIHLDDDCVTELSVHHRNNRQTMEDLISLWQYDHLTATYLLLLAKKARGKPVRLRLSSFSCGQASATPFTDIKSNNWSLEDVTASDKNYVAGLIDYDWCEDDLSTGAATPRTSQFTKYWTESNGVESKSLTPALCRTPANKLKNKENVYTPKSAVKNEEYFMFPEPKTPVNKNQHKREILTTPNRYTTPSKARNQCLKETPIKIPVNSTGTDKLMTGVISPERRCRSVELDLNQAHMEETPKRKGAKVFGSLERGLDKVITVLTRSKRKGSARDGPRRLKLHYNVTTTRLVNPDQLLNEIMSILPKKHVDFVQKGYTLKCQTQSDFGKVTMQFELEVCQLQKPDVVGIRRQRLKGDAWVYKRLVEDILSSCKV

For `CC(=O)c1cnc2ccc(-c3cc(Cl)c(O)c(Cl)c3)nc2c1Nc1ccc(N2CCCC(N)C2)nc1` (stereo not drawn) [Example 64, 1-(4-{[6-(3-Aminopiperidin-1-yl)pyridin-3-yl]amino}-6-(3,5-dichloro-4-hydroxyphenyl)-1,5-naphthyridin-3-yl)ethanone trihydrochloride], the IC50 at MELK stood at 0.0012 µM; with 22Rv1 cells, 0.016 µM; in the experiment with A549 cells, 0.07 µM; with DU4475 cells it was 0.016 µM; in the experiment on T47D cells, 0.0064 µM; with HT1197 cells, 2.9 µM.

In the case of `CC(=O)c1cnc2ccc(-c3cc(F)c(O)c(Cl)c3)nc2c1Nc1ccc(N2CCCC(N)C2)nc1` (stereo not drawn) [Example 65, 1-(4-{[6-(3-Aminopiperidin-1-yl)pyridin-3-yl]amino}-6-(3-chloro-5-fluoro-4-hydroxyphenyl)-1,5-naphthyridin-3-yl)ethanone trihydrochloride], the half-maximal inhibitory concentration (IC50) amounted to 0.0031 µM against MELK; 0.013 µM in the experiment with 22Rv1 cells; 0.021 µM in the experiment on A549 cells; 0.015 µM with DU4475 cells; 0.0047 µM in the experiment on T47D cells; 0.74 µM with HT1197 cells.

In the case of `CC(=O)c1cnc2ccc(-c3cc(Cl)c(O)c(Cl)c3)nc2c1N[C@H]1CC[C@H](N)CC1` [Example 66, 1-{4-[trans-(4-Aminocyclohexyl)amino]-6-(3,5-dichloro-4-hydroxyphenyl)-1,5-naphthyridin-3-yl}-ethanone dihydrochloride], the IC50 against MELK was found to be 0.0018 µM; with 22Rv1 cells, 0.0045 µM; in the experiment on A549 cells, 0.016 µM; in the experiment with DU4475 cells, 0.001 µM; with T47D cells it was 0.0018 µM; in the experiment with HT1197 cells, 10 µM.

On to `CC(=O)c1cnc2ccc(-c3cc(F)c(O)c(Cl)c3)nc2c1N[C@H]1CC[C@H](N)CC1` [Example 67, 1-{4-[trans-(4-Aminocyclohexyl)amino]-6-(3-chloro-5-fluoro-4-hydroxyphenyl)-1,5-naphthyridin-3-yl}ethanone dihydrochloride], for which the half-maximal inhibitory concentration (IC50) was 0.0012 µM at MELK; 0.0061 µM in the experiment on 22Rv1 cells; 0.022 µM in the experiment on A549 cells; 0.0012 µM with DU4475 cells; 0.0019 µM in the experiment with T47D cells; 2.8 µM in the experiment with HT1197 cells.

Regarding `CC(=O)c1cnc2ccc(-c3cc(F)c(O)c(Cl)c3)nc2c1N[C@H]1CC[C@H](CN2CCN(C)CC2)CC1` [Example 68, 1-(6-(3-Chloro-5-fluoro-4-hydroxyphenyl)-4-{trans-4-[4-methylpiperazin-1-yl)methyl]-cyclohexylamino}-1,5-naphthyridin-3-yl)ethanone trihydrochloride], the IC50 against MELK stood at 0.0026 µM; with 22Rv1 cells, 0.039 µM; in the experiment with A549 cells it was 0.026 µM; in the experiment with DU4475 cells it was 0.012 µM; in the experiment on T47D cells, 0.012 µM; with HT1197 cells, 0.11 µM.

In the case of `CC(=O)c1cnc2ccc(-c3cc(F)c(O)c(Cl)c3)nc2c1N[C@H]1CC[C@H](NC(=O)C(N)C(C)C)CC1` (stereo partly drawn) [Example 69, N-(trans-4-{[3-Acetyl-6-(3-chloro-5-fluoro-4-hydroxyphenyl)-1,5-naphthyridin-4-yl]amino}-cyclohexyl)-2-amino-3-methylbutanamide dihydrochloride], the half-maximal inhibitory concentration (IC50) at MELK was 0.0012 µM; with 22Rv1 cells it was 0.025 µM; in the experiment with A549 cells, 0.064 µM; in the experiment with DU4475 cells, 0.013 µM; in the experiment with T47D cells, 0.007 µM; in the experiment with HT1197 cells, 2.5 µM.

For `CC(=O)c1cnc2ccc(-c3cc(Cl)c(O)c(Cl)c3)nc2c1N[C@H]1CC[C@H](CN2CCNCC2)CC1` [Example 70, 1-{6-(3,5-Dichloro-4-hydroxyphenyl)-4-[trans-4-(piperazin-1-ylmethyl)cyclohexylamino]-1,5-naphthyridin-3-yl}ethanone trihydrochloride], the concentration for half-maximal inhibition (IC50) against MELK was 0.0006 µM; in the experiment on 22Rv1 cells, 0.031 µM; in the experiment on A549 cells, 0.084 µM; in the experiment with DU4475 cells it was 0.011 µM; in the experiment on T47D cells, 0.021 µM; in the experiment with HT1197 cells, 3.9 µM.

For `CC(=O)c1cnc2ccc(-c3cc(Cl)c(O)c(Cl)c3)nc2c1Nc1ccc(N2CCC[C@H](N)C2)nc1` [Example 71, (S)-1-(4-{[6-(3-Aminopiperidin-1-yl)pyridin-3-yl]amino}-6-(3,5-dichloro-4-hydroxyphenyl)-1,5-naphthyridin-3-yl)ethanone trihydrochloride], the IC50 against MELK turned out to be 0.0005 µM; with 22Rv1 cells, 0.014 µM; with A549 cells, 0.09 µM; with DU4475 cells, 0.008 µM; in the experiment on T47D cells it was 0.0074 µM; with HT1197 cells, 3.4 µM.

`CC(=O)c1cnc2ccc(-c3cc(F)c(O)c(Cl)c3)nc2c1Nc1ccc(N2CCC[C@H](N)C2)nc1` [Example 72, (S)-1-(4-{[6-(3-Aminopiperidin-1-yl)pyridin-3-yl]amino}-6-(3-chloro-5-fluoro-4-hydroxy-phenyl)-1,5-naphthyridin-3-yl)ethanone trihydrochloride]: the half-maximal inhibitory concentration (IC50) on MELK was determined as 0.0043 µM; with 22Rv1 cells, 0.014 µM; with A549 cells it was 0.047 µM; in the experiment on DU4475 cells, 0.014 µM; with T47D cells, 0.0053 µM; in the experiment with HT1197 cells, 1.2 µM.

Turning to `CC(=O)c1cnc2ccc(-c3cc(Cl)c(O)c(Cl)c3)nc2c1N[C@H]1CC[C@H](NC(=O)C(C)N)CC1` (stereo partly drawn) [Example 73, N-{trans-4-[3-Acetyl-6-(3,5-dichloro-4-hydroxyphenyl)-1,5-naphthyridin-4-ylamino]-cyclohexyl}-2-aminopropanamide dihydrochloride], the IC50 against MELK turned out to be 0.0075 µM; in the experiment with 22Rv1 cells, 0.027 µM; in the experiment on A549 cells, 0.18 µM; with DU4475 cells, 0.0043 µM; in the experiment with T47D cells, 0.0086 µM; in the experiment on HT1197 cells, 100 µM.

In the case of `CC(=O)c1cnc2ccc(-c3cc(F)c(O)c(Cl)c3)nc2c1N[C@H]1CC[C@H](NC(=O)C(C)N)CC1` (stereo partly drawn) [Example 74, N-{4-[3-Acetyl-6-(3-chloro-5-fluoro-4-hydroxyphenyl)-1,5-naphthyridin-trans-4-ylamino]-cyclohexyl}-2-aminopropanamide dihydrochloride], the IC50 was 0.0026 µM at MELK; 0.025 µM in the experiment on 22Rv1 cells; 0.13 µM with A549 cells; 0.0036 µM with DU4475 cells; 0.0043 µM with T47D cells; 100 µM in the experiment with HT1197 cells.

As for `CC(=O)c1cnc2ccc(-c3cc(Cl)c(O)c(Cl)c3)nc2c1N[C@H]1CC[C@H](NC(=O)[C@@H]2CCCN2)CC1` [Example 75, (S)—N-{4-[3-Acetyl-6-(3,5-dichloro-4-hydroxyphenyl)-1,5-naphthyridin-trans-4-ylamino]-cyclohexyl}pyrrolidine-2-carboxamide dihydrochloride], the IC50 at MELK amounted to 0.001 µM; with 22Rv1 cells it was 0.099 µM; in the experiment with A549 cells it was 0.21 µM; in the experiment on DU4475 cells, 0.021 µM; with T47D cells it was 0.036 µM; with HT1197 cells it was 8.4 µM.

As for `CC(=O)c1cnc2ccc(N3CCC(O)C3)nc2c1N[C@H]1CC[C@H](CN2CCC(O)C2)CC1` (stereo partly drawn) [Example 77, 1-(6-(3-Hydroxypyrrolidin-1-yl)-4-{trans-4-[(3-hydroxypyrrolidin-1-yl)methyl]-cyclohexylamino}-1,5-naphthyridin-3-yl)ethanone], the IC50 was determined as 0.74 µM against MELK; 10 µM with 22Rv1 cells; 10 µM with A549 cells; 10 µM in the experiment on DU4475 cells; 10 µM with T47D cells; 10 µM with HT1197 cells.

Turning to `CC(=O)c1cnc2ccc(N3CCCC3)nc2c1N[C@H]1CC[C@H](CN2CCCC2)CC1` [Example 78, 1-{6-(Pyrrolidin-1-yl)-4-[trans-4-(pyrrolidin-1-ylmethyl)cyclohexylamino]-1,5-naphthyridin-3-yl}ethanone], the half-maximal inhibitory concentration (IC50) at MELK was determined as 2 µM; in the experiment on 22Rv1 cells it was 5.6 µM; in the experiment with A549 cells, 6.8 µM; in the experiment with DU4475 cells, 7.7 µM; in the experiment on T47D cells it was 5.4 µM; in the experiment on HT1197 cells it was 9.8 µM.

On to `CC(=O)c1cnc2ccc(-c3cc(Cl)c(O)c(Cl)c3)nc2c1N[C@H]1CC[C@H](NC(=O)C(N)C(C)C)CC1` (stereo partly drawn) [Example 79, N-{trans-4-[3-Acetyl-6-(3,5-dichloro-4-hydroxyphenyl)-1,5-naphthyridin-4-ylamino]-cyclohexyl}-2-amino-3-methylbutanamide dihydrochloride], for which the concentration for half-maximal inhibition (IC50) against MELK amounted to 0.0016 µM; in the experiment with 22Rv1 cells, 0.038 µM; with A549 cells, 0.11 µM; in the experiment on DU4475 cells, 0.016 µM; in the experiment on T47D cells, 0.018 µM; in the experiment on HT1197 cells, 3.9 µM.

Regarding `CN(C)[C@H]1CC[C@H](Nc2c(C(=O)C3CC3)cnc3ccc(-c4cc(Cl)c(O)c(Cl)c4)nc23)CC1` [Example 80, Cyclopropyl {6-(3,5-dichloro-4-hydroxyphenyl)-4-[trans-4-(dimethylamino)-cyclohexylamino]-1,5-naphthyridin-3-yl}methanone dihydrochloride], the concentration for half-maximal inhibition (IC50) at MELK is 0.0006 µM; with 22Rv1 cells, 0.0052 µM; in the experiment on A549 cells, 0.0076 µM; in the experiment on DU4475 cells, 0.002 µM; in the experiment with T47D cells, 0.0041 µM; with HT1197 cells, 0.084 µM.

The record behind these values is patent publication US9067937B2 (priority 2012, dated 2015).
